Assay results: patent publication US11369695B2, “Fat droplets in retina and optic nerve as a diagnostic marker for neurodegeneration and glaucoma in humans” (The Jackson Laboratory, priority 2016, dated 2022)
Entries after “also recorded” stand apart in the source; their conditions may differ.

Legend:
DBA/2J (D2) mice [1] = assay: Glaucomatous neurodegeneration in D2 mice at 12 months (optic nerve damage grading, soma loss, visual function, axonal transport); assay type: in vivo, mouse; details: for protection from developing glaucoma / optic nerve degeneration: NAM 550 mg/kg/d in drinking water, assessed at 12 months
Procedure: From left, DBA/2J control—D2 mice on standard drinking water; Nicotinamide)(NAM^Lo) early start—D2 mice on standard drinking water supplemented with 550 mg/kg/day NAM from 6 months of age (pre-disease); Nicotinamide)(NAM^Lo) late start—D2 mice on standard drinking water supplemented with 550 mg/kg/day NAM from 9 months of age (during disease); Nicotinamide (NAM^Hi) early start—D2 mice on standard drinking water supplemented with 2,000 mg/kg/day NAM from 6 months of age (pre-disease); Pyruvate—D2 mice on standard drinking water supplemented with 500 mg/kg/day pyruvate from 6 months of age (pre-elevated IOP); NAM^Lo+Pyruvate—D2 mice on standard drinking water supplemented with 550 mg/kg/day NAM+500 mg/kg/day pyruvate from 6 months of age (pre-disease); D2.Wld^S—D2 mice carrying the Wld^S transgene (altered NMNAT enzyme that enhances enzymatic activity) on standard drinking water; D2.Wld^S+Nicotinamide)(NAM^Lo)—D2 mice carrying the Wld^S transgene (altered NMNAT enzyme) on standard drinking water with 550 mg/kg/day NAM from 6 months of age (pre-elevated IOP).
To determine the fate of the retinal ganglion cells following prolonged period of elevated IOP in the D2 mice, we used PPD staining of the optic nerve to reveal the extent of retinal and/or optic nerve neurodegeneration, as PPD darkly stains the axoplasm of dead/dying axons.
For this purpose, we distinguished optic nerves as having one of three levels of damage: no glaucoma, where there is <5% axon loss in the optic nerve, these nerves are indistinguishable from young controls; moderate glaucoma, with […], and evidence of darkly stained axons; or severe glaucoma, with >50% axon loss, and typically accompanied by gliosis/gliotic scarring.
We conducted this in vivo experiment using a large cohort of D2 mice. In this experiment, optic nerves were classified into three damage levels: NO (no glaucoma), MOD (moderate damage), and SEV (severe damage).
Experimental D2 mice were divided into the following groups and were given:
W=water (standard mouse water)
NAM or NAM^Lo=550 mg/kg/d NAM in drinking water
Early=early start=pre-glaucoma=6-month of age (i.e. prophylactic)
Late=late start=during glaucoma=9-month of age (when mice already have high IOP, i.e. interventional, and more relative to human glaucoma)
Mice were then assessed at 12-month for optic nerve damage, soma loss, visual function, and axonal transport (data not shown).

[2] = test system: lipid droplets in DBA/2J retinas; assay: Lipid droplet formation in the inner retina by Oil Red O staining; assay type: in vivo, mouse; details: 12 month of age DBA/2J mice, versus untreated
Procedure: Lipid droplet formation in the inner retina was assessed by Oil Red O staining, which brightly stained neutral triglycerides and lipids. Following intraocular pressure elevation, lipid droplets were present within the inner retina of DBA/2J mice. At 6 months of age, the majority of retinas were negative for lipid droplets. By 9 months of age, small and dispersed lipid droplets were present in some eyes. By 12 months of age, lipid accumulation was present in the majority of eyes in retinas that had not yet developed glaucoma (no glaucoma). In eyes that had developed severe glaucoma, lipid droplets were present across the retina in the majority of eyes. GCL=ganglion cell layer (retinal ganglion cell bodies), IPL=inner plexiform layer (retinal ganglion cell dendrites and synapses). Haematoxylin (dark blue/purple) is a general marker of cell nuclei used as a counter-stain.
Lipid droplet formation was assessed in retinas from nicotinamide-treated DBA/2J mice. […] GCL=ganglion cell layer (retinal ganglion cell bodies), IPL=inner plexiform layer (retinal ganglion cell dendrites and synapses). Haematoxylin (dark blue/purple) is a general marker of cell nuclei used as a counter-stain.
Again, lipid/fat droplet formation in the inner retina was assessed by Oil Red O staining. […]
Lipid droplet formation was assessed in retinas from nicotinamide-treated DBA/2J mice.

DBA/2J (D2) mice [3] = assay: Intraocular pressure (IOP) in D2 mice; assay type: in vivo, mouse; details: NAM in drinking water (data not shown)
Excerpt: Following the onset of iris disease around 6 months of age, intraocular pressure began to increase (FIG. 2). A typical “normal” IOP in a D2 mouse eye is ˜13 mmHg, which increases progressively from 6 to 12 months, to values that can typically exceed 20 mmHg. By 9 months of age, IOP was/had been elevated in the majority of the eyes of the D2 mice. IOP increases in D2 eyes were age-related and asynchronous, as well as being highly variable. In our colony, females tend to have higher/early onsets of elevated IOP (FIG. 2). […] Importantly, NAM was protective both prophylactically (starting at 6-month, early start; prior to IOP elevation in the vast majority of eyes in the colony), and as an intervention (starting at 9-month, late start; when the majority of eyes have had continuing IOP elevation). This signifies that NAM is able to both prevent neuronal injury from occurring as well as limiting neuronal injury to already insulted neurons (FIG. 6). This is important for human disease where treatment would only start once a disease has become symptomatic and thus detectable.

NAD levels = NAD levels in NAM-treated D2 mice; assay type: in vivo, mouse; details: NAM 550 mg/kg/d in drinking water
retinal ganglion cells = assay: Retinal ganglion cell analyses in NAM-treated D2 mice (data not shown); assay type: in vivo, mouse
Excerpt: In addition, many ocular and neurodegenerative diseases occur in the elderly due to age-dependent molecular chances that increase susceptibility to damage. […] Furthermore, axonal degeneration and somal shrinkage may represent common components in some neurodegenerative diseases. NAM prevents these changes based on the data above at least in glaucoma treatment.

mice = assay: PQQ tolerability in mice; assay type: in vivo, mouse
Procedure: With regard to PQQ, it is tolerated at least at 2,000 mg/kg/day in mice. The neuroprotective effect provided by PQQ is about 20-2,000 mg/kg/day, about 100-1,000 mg/kg/day, or about 500 mg/kg/day in mice.

DBA/2J (D2) mice [4] = details: cited from earlier work
DBA/2J (D2) mice [5] = details: cited from earlier work; remark: listed apart in the source

NC(=O)c1cccnc1 [NAM, nicotinamide]
protection from developing glaucoma / optic nerve degeneration (DBA/2J (D2) mice [1]): protect the D2 mice from all detectable signs of glaucoma through 12 months; also recorded: robustly protected D2 mice from developing glaucoma
protection from developing glaucoma / optic nerve degeneration (DBA/2J (D2) mice [1]; listed as nicotinamide): protects against optic nerve degeneration
glaucoma in the majority of the treated eyes, including PERG (DBA/2J (D2) mice [1]; NAM administration): completely prevents glaucoma
protection from glaucoma, prophylactic (DBA/2J (D2) mice [1]; NAM early start at 6-month, prior to IOP elevation): protects against glaucomatous neurodegeneration prophylactically; also recorded: protective
protection from glaucoma, as an intervention (DBA/2J (D2) mice [1]; NAM late start at 9-month, continuing IOP elevation): protective
lipid droplet accumulation in retinas [2]: completely prevented
effect on IOP (DBA/2J (D2) mice [3]): did not alter IOP
decline of NAD levels (NAD levels): prevent the decline of NAD levels
early synapse loss (retinal ganglion cells; data not shown): protects early synapse loss
formation of dysfunctional mitochondria with abnormal cristae (retinal ganglion cells; data not shown): inhibits the formation of dysfunctional mitochondria with abnormal cristae
retinal ganglion cell dysfunction and degeneration (retinal ganglion cells; data not shown): robustly prevent retinal ganglion cell dysfunction and degeneration
age-related gene expression / molecular changes in RGCs (retinal ganglion cells; gene expression, data not shown): prevents age-related gene expression In RGCs; also recorded: prevents age-related molecular changes
axonal degeneration and somal shrinkage (retinal ganglion cells; glaucoma): prevents axonal degeneration and somal shrinkage
PARP activation (retinal ganglion cells; immunostaining, data not shown): decreases PARP activation
molecular signs of glaucoma (retinal ganglion cells; immunostaining, data not shown): prevents molecular signs of glaucoma

O=C(O)c1cc(C(=O)O)c2c(n1)C(=O)C(=O)c1cc(C(=O)O)[nH]c1-2 [PQQ, Pyrroloquinoline Quinone]
tolerated dose (mice): ≥ 2,000 mg/kg/day

CC12CC3CC(C)(C1)CC(N)(C3)C2 [memantine]
risk of developing neurodegeneration after topical administration (DBA/2J (D2) mice [4]): reduces the risk of developing neurodegeneration
IOP after topical administration (DBA/2J (D2) mice [5]): lowers IOP

CC(C)OC(=O)CCC/C=C\C[C@@H]1[C@@H](CC[C@@H](O)CCc2ccccc2)[C@H](O)C[C@@H]1O [Latanoprost]
risk of developing neurodegeneration after topical administration (DBA/2J (D2) mice [4]): reduces the risk of developing neurodegeneration
IOP after topical administration (DBA/2J (D2) mice [5]): lowers IOP

CC(C)(C)NC[C@H](O)COc1nsnc1N1CCOCC1 [timolol]
risk of developing neurodegeneration after topical administration (DBA/2J (D2) mice [4]): reduces the risk of developing neurodegeneration
IOP after topical administration (DBA/2J (D2) mice [5]): lowers IOP
